# Read-outs that look alike come from different tables or passages of the source.
# Key:
# [1] = Single-dose nebulized nose-only inhalation PK in healthy rats; type: in vivo, rat; conditions: male, Sprague Dawley, rat, in vivo
# Procedure: Rats were acclimated in the study facility for approximately 1 week prior to study start. Ten or eleven rats per cohort were loaded into the chamber at the time of dosing. […] An additional airflow set to 6 liters/min was admixed with the nebulizer output to further direct the test articles to the animals. […] The remaining port on the chamber was fit with an aerosol sampling filter for dose determination over a 5 min sampling period. The average dose delivered to the nose of each animal was calculated using an algorithm that was previously described ([49]). […] Animals were euthanized for collection of whole lungs and plasma at time points ranging from immediate postdose (IPD; approximately 30 min after dosing for nebulization) to 168 h postdose (7 days). Drugs were extracted from tissues using customized protein precipitation methods with an appropriate internal standard for each compound and transferred for analysis by LC-MS/MS (Sciex API4500 or API6500+ mass spectrometer [Sciex, Framingham, MA]). GraphPad Prism (La Jolla, CA) was used for statistical analyses and data plotting. […] The data were applied to a noncompartmental analysis after extravascular dosing input and fit to a linear up/log down model. Statistical analysis of in vitro intracellular and biofilm activity was based on a two-way ANOVA with a Bonferroni post test. In vivo statistical analysis was based on the Kolmogorov-Smirnov test.
# [2] = test system: MRSA ATCC BAA 1556 (USA300); test: In-house broth microdilution MIC screening; type: cell-based, Staphylococcus aureus; conditions: for MIC: Staphylococcus aureus, read-out: MIC Value, MRSA ATCC BAA 1556
# [3] = test system: MSSA ATCC 29213; test: In-house broth microdilution MIC screening; type: cell-based; conditions: Staphylococcus aureus, read-out: MIC Value, MSSA ATCC 29213
# [4] = MRSA and MSSA isolates of Table 1
Compound,MIC ([2]; broth microdilution) [µg/mL],MIC ([3]; broth microdilution) [µg/mL],also measured
CCCCCCCCCCCCCC(=O)OCCNC1(C)CC(OC2C(Oc3c4cc5cc3Oc3ccc(cc3Cl)C(O)C3NC(=O)C(NC(=O)C5NC(=O)C(CC(N)=O)NC(=O)C(NC(=O)C(CC(C)C)NC)C(O)c5ccc(c(Cl)c5)O4)c4ccc(O)c(c4)-c4c(O)cc(O)cc4C(C(=O)O)NC3=O)OC(CO)C(O)C2O)OC(C)C1O (centres unmarked) [RV88],0.125,0.125,Pulmonary dose [1]: 0.12 mg/kg; Time to full conversion to hydrolysis product in the lung [1]: ≤ 24 h; Drug lung level at 120 h ([1]; 120 h): 1.5%; Primary hydrolysis byproduct lung level at 120 h ([1]; 120 h): 71%; Kp ([1]; inhaled or intranasal): 1350; Lung AUC0-∞ ([1]; inhaled or intranasal): 360 µg·h/g; Lung Cmax ([1]; inhaled or intranasal): 26 µg/g; Lung t1/2 ([1]; inhaled or intranasal): 21 h; Plasma Cmax ([1]; inhaled or intranasal): 20 ng/mL
CCCCCCCCCC(=O)NCCNC1(C)CC(OC2C(Oc3c4cc5cc3Oc3ccc(cc3Cl)C(O)C3NC(=O)C(NC(=O)C5NC(=O)C(CC(N)=O)NC(=O)C(NC(=O)C(CC(C)C)NC)C(O)c5ccc(c(Cl)c5)O4)c4ccc(O)c(c4)-c4c(O)cc(O)cc4C(C(=O)O)NC3=O)OC(CO)C(O)C2O)OC(C)C1O (centres unmarked) [RV56],0.063,0.063,–
CCCCCCCCCCCCCCCC(=O)NCCNC1(C)CC(OC2C(Oc3c4cc5cc3Oc3ccc(cc3Cl)C(O)C3NC(=O)C(NC(=O)C5NC(=O)C(CC(N)=O)NC(=O)C(NC(=O)C(CC(C)C)NC)C(O)c5ccc(c(Cl)c5)O4)c4ccc(O)c(c4)-c4c(O)cc(O)cc4C(C(=O)O)NC3=O)OC(CO)C(O)C2O)OC(C)C1O (centres unmarked) [RV91],0.25,0.188,–
CCCCCCCCCCOC(=O)CNC1(C)CC(OC2C(Oc3c4cc5cc3Oc3ccc(cc3Cl)C(O)C3NC(=O)C(NC(=O)C5NC(=O)C(CC(N)=O)NC(=O)C(NC(=O)C(CC(C)C)NC)C(O)c5ccc(c(Cl)c5)O4)c4ccc(O)c(c4)-c4c(O)cc(O)cc4C(C(=O)O)NC3=O)OC(CO)C(O)C2O)OC(C)C1O (centres unmarked) [RV55],0.25,0.25,–
CCCCCCCCCCCC(=O)OCCNC1(C)CC(OC2C(Oc3c4cc5cc3Oc3ccc(cc3Cl)C(O)C3NC(=O)C(NC(=O)C5NC(=O)C(CC(N)=O)NC(=O)C(NC(=O)C(CC(C)C)NC)C(O)c5ccc(c(Cl)c5)O4)c4ccc(O)c(c4)-c4c(O)cc(O)cc4C(C(=O)O)NC3=O)OC(CO)C(O)C2O)OC(C)C1O (centres unmarked) [RV65],0.094,0.063,–
CCCCCCCCNC(=O)CNC1(C)CC(OC2C(Oc3c4cc5cc3Oc3ccc(cc3Cl)C(O)C3NC(=O)C(NC(=O)C5NC(=O)C(CC(N)=O)NC(=O)C(NC(=O)C(CC(C)C)NC)C(O)c5ccc(c(Cl)c5)O4)c4ccc(O)c(c4)-c4c(O)cc(O)cc4C(C(=O)O)NC3=O)OC(CO)C(O)C2O)OC(C)C1O (centres unmarked) [RV121],0.25,0.25,–
CCCCCCCCCCCCOC(=O)CNC1(C)CC(OC2C(Oc3c4cc5cc3Oc3ccc(cc3Cl)C(O)C3NC(=O)C(NC(=O)C5NC(=O)C(CC(N)=O)NC(=O)C(NC(=O)C(CC(C)C)NC)C(O)c5ccc(c(Cl)c5)O4)c4ccc(O)c(c4)-c4c(O)cc(O)cc4C(C(=O)O)NC3=O)OC(CO)C(O)C2O)OC(C)C1O (centres unmarked) [RV126],2,2,–
CCCCCCCCOC(=O)CNC1(C)CC(OC2C(Oc3c4cc5cc3Oc3ccc(cc3Cl)C(O)C3NC(=O)C(NC(=O)C5NC(=O)C(CC(N)=O)NC(=O)C(NC(=O)C(CC(C)C)NC)C(O)c5ccc(c(Cl)c5)O4)c4ccc(O)c(c4)-c4c(O)cc(O)cc4C(C(=O)O)NC3=O)OC(CO)C(O)C2O)OC(C)C1O (centres unmarked) [RV124],0.75,0.5,–
CCCCCCCCCCCCCCOC(=O)CNC1(C)CC(OC2C(Oc3c4cc5cc3Oc3ccc(cc3Cl)C(O)C3NC(=O)C(NC(=O)C5NC(=O)C(CC(N)=O)NC(=O)C(NC(=O)C(CC(C)C)NC)C(O)c5ccc(c(Cl)c5)O4)c4ccc(O)c(c4)-c4c(O)cc(O)cc4C(C(=O)O)NC3=O)OC(CO)C(O)C2O)OC(C)C1O (centres unmarked) [RV127],4,4,–
CNC(CC(C)C)C(=O)NC1C(=O)NC(CC(N)=O)C(=O)NC2C(=O)NC3C(=O)NC(C(=O)NC(C(=O)O)c4cc(O)cc(O)c4-c4cc3ccc4O)C(O)c3ccc(c(Cl)c3)Oc3cc2cc(c3OC2OC(CO)C(O)C(O)C2OC2CC(C)(NCC(=O)O)C(O)C(C)O2)Oc2ccc(cc2Cl)C1O (centres unmarked) [RV101],> 128,> 128,–
CCCCCCCCCCCCNC(=O)CNC1(C)CC(OC2C(Oc3c4cc5cc3Oc3ccc(cc3Cl)C(O)C3NC(=O)C(NC(=O)C5NC(=O)C(CC(N)=O)NC(=O)C(NC(=O)C(CC(C)C)NC)C(O)c5ccc(c(Cl)c5)O4)c4ccc(O)c(c4)-c4c(O)cc(O)cc4C(C(=O)O)NC3=O)OC(CO)C(O)C2O)OC(C)C1O (centres unmarked) [RV95],0.031,0.031,"MIC potency, fold less potent than RV40 [2, 4]: ~2 fold; MIC potency, fold more potent than telavancin [2, 4]: ~2 fold; MIC potency, fold more potent than vancomycin [2, 4]: approximately 30 fold"
CNC(CC(C)C)C(=O)NC1C(=O)NC(CC(N)=O)C(=O)NC2C(=O)NC3C(=O)NC(C(=O)NC(C(=O)O)c4cc(O)cc(O)c4-c4cc3ccc4O)C(O)c3ccc(c(Cl)c3)Oc3cc2cc(c3OC2OC(CO)C(O)C(O)C2OC2CC(C)(NCCN)C(O)C(C)O2)Oc2ccc(cc2Cl)C1O (centres unmarked) [RV82],2,2,Lung retention of primary hydrolysis by-product [1]: sustained in the lung throughout the course of the 120 h experiments
CCCCCCCCCCCCCC(=O)NCCNC1(C)CC(OC2C(Oc3c4cc5cc3Oc3ccc(cc3Cl)C(O)C3NC(=O)C(NC(=O)C5NC(=O)C(CC(N)=O)NC(=O)C(NC(=O)C(CC(C)C)NC)C(O)c5ccc(c(Cl)c5)O4)c4ccc(O)c(c4)-c4c(O)cc(O)cc4C(C(=O)O)NC3=O)OC(CO)C(O)C2O)OC(C)C1O (centres unmarked) [RV92],0.031,0.023,–
CCCCCCCC(=O)OCCNC1(C)CC(OC2C(Oc3c4cc5cc3Oc3ccc(cc3Cl)C(O)C3NC(=O)C(NC(=O)C5NC(=O)C(CC(N)=O)NC(=O)C(NC(=O)C(CC(C)C)NC)C(O)c5ccc(c(Cl)c5)O4)c4ccc(O)c(c4)-c4c(O)cc(O)cc4C(C(=O)O)NC3=O)OC(CO)C(O)C2O)OC(C)C1O (centres unmarked) [RV90],–,–,MIC [2]: 0.25 µg/mL; MIC [3]: 0.25 µg/mL
CCCCCCCC(=O)NCCNC1(C)CC(OC2C(Oc3c4cc5cc3Oc3ccc(cc3Cl)C(O)C3NC(=O)C(NC(=O)C5NC(=O)C(CC(N)=O)NC(=O)C(NC(=O)C(CC(C)C)NC)C(O)c5ccc(c(Cl)c5)O4)c4ccc(O)c(c4)-c4c(O)cc(O)cc4C(C(=O)O)NC3=O)OC(CO)C(O)C2O)OC(C)C1O (centres unmarked) [RV93],0.125,0.125,–
CCCCCCCCCCCCCCCCOC(=O)CNC1(C)CC(OC2C(Oc3c4cc5cc3Oc3ccc(cc3Cl)C(O)C3NC(=O)C(NC(=O)C5NC(=O)C(CC(N)=O)NC(=O)C(NC(=O)C(CC(C)C)NC)C(O)c5ccc(c(Cl)c5)O4)c4ccc(O)c(c4)-c4c(O)cc(O)cc4C(C(=O)O)NC3=O)OC(CO)C(O)C2O)OC(C)C1O (centres unmarked) [RV128],1,1,–
CCCCCCCCCCCCCCNC(=O)CNC1(C)CC(OC2C(Oc3c4cc5cc3Oc3ccc(cc3Cl)C(O)C3NC(=O)C(NC(=O)C5NC(=O)C(CC(N)=O)NC(=O)C(NC(=O)C(CC(C)C)NC)C(O)c5ccc(c(Cl)c5)O4)c4ccc(O)c(c4)-c4c(O)cc(O)cc4C(C(=O)O)NC3=O)OC(CO)C(O)C2O)OC(C)C1O (centres unmarked) [RV130],0.25,0.125,–
CCCCCCCCCCCCCCCCNC(=O)CNC1(C)CC(OC2C(Oc3c4cc5cc3Oc3ccc(cc3Cl)C(O)C3NC(=O)C(NC(=O)C5NC(=O)C(CC(N)=O)NC(=O)C(NC(=O)C(CC(C)C)NC)C(O)c5ccc(c(Cl)c5)O4)c4ccc(O)c(c4)-c4c(O)cc(O)cc4C(C(=O)O)NC3=O)OC(CO)C(O)C2O)OC(C)C1O (centres unmarked) [RV131],4,4,–
CCCCCCCCCC(=O)OCCNC1(C)CC(OC2C(Oc3c4cc5cc3Oc3ccc(cc3Cl)C(O)C3NC(=O)C(NC(=O)C5NC(=O)C(CC(N)=O)NC(=O)C(NC(=O)C(CC(C)C)NC)C(O)c5ccc(c(Cl)c5)O4)c4ccc(O)c(c4)-c4c(O)cc(O)cc4C(C(=O)O)NC3=O)OC(CO)C(O)C2O)OC(C)C1O (centres unmarked) [RV54],0.167,0.146,–
CNC(CC(C)C)C(=O)NC1C(=O)NC(CC(N)=O)C(=O)NC2C(=O)NC3C(=O)NC(C(=O)NC(C(=O)O)c4cc(O)cc(O)c4-c4cc3ccc4O)C(O)c3ccc(c(Cl)c3)Oc3cc2cc(c3OC2OC(CO)C(O)C(O)C2OC2CC(C)(NCCO)C(O)C(C)O2)Oc2ccc(cc2Cl)C1O (centres unmarked) [RV80],2,1.5,Lung retention of primary hydrolysis by-product [1]: sustained in the lung throughout the course of the 120 h experiments
CCCCCCCCCCCCCCCC(=O)OCCNC1(C)CC(OC2C(Oc3c4cc5cc3Oc3ccc(cc3Cl)C(O)C3NC(=O)C(NC(=O)C5NC(=O)C(CC(N)=O)NC(=O)C(NC(=O)C(CC(C)C)NC)C(O)c5ccc(c(Cl)c5)O4)c4ccc(O)c(c4)-c4c(O)cc(O)cc4C(C(=O)O)NC3=O)OC(CO)C(O)C2O)OC(C)C1O (centres unmarked) [RV89],1,0.5,–
